Assay results taken from ChEMBL document CHEMBL2390846, “Small-molecule pyrimidine inhibitors of the cdc2-like (Clk) and dual specificity tyrosine phosphorylation-regulated (Dyrk) kinases: development of chemical probe ML315” (Bioorg Med Chem Lett, 2013).

How the values were obtained:
[1] = target: Dual specificity tyrosine-phosphorylation-regulated kinase 1A (Homo sapiens, UniProt Q13627); experiment: Inhibition of DYRK1A (unknown origin) by bioluminescence assay
[2] = target: Dual specificity protein kinase CLK4 (Homo sapiens, UniProt Q9HAZ1); experiment: Inhibition of CLK4 (unknown origin) by bioluminescence assay
Sequence of Dual specificity protein kinase CLK4 (Q9HAZ1 whole entry): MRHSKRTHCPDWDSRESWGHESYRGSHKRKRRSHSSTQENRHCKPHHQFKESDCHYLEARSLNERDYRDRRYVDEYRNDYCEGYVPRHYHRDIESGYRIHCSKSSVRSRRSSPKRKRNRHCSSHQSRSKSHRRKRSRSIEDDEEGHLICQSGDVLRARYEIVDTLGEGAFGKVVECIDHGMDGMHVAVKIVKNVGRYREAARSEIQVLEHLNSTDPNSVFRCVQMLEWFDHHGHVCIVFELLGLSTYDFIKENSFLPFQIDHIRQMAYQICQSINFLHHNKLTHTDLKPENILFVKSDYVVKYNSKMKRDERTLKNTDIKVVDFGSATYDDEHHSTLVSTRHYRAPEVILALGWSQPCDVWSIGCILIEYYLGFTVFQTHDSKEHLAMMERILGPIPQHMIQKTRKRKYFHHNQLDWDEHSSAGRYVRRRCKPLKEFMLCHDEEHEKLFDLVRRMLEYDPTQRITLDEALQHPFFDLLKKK

Row | IC50 ([2]; read-out: IC50) | SMILES | also measured
1 | – | Cc1ccc(CNc2ccnc(-c3c(C)noc3C)n2)cc1 | IC50 [1]: Not Active; IC50 [2]: Not Active
2 | 23.2 µM | c1cc(CNc2ccnc(-c3ccc4c(c3)OCO4)n2)ccn1 | –
3 | 4.1 µM | Clc1cc(Cl)cc(CNc2ccnc(-c3ccc4c(c3)OCO4)n2)c1 | IC50 [1]: Not Active
4 | 23.2 µM | c1ccc(CNc2ccnc(-c3ccc4c(c3)OCO4)n2)cc1 | IC50 ([1]; read-out: IC50): 26 µM
5 | 16.4 µM | COc1cccc(-c2ncccn2)c1 | –
6 | 0.79 µM | c1cncc(-c2cc(-n3ccnc3)ncn2)c1 | –
7 | 5.2 µM | Fc1ccc(CNc2ccnc(-c3ccc4c(c3)OCO4)n2)cc1Cl | –
8 | 13 µM | Clc1ccc(CNc2ccnc(-c3cccnc3)n2)cc1Cl | –
9 | – | COc1ccc(CNc2ccnc(-c3c(C)noc3C)n2)cc1 | IC50 [1]: Not Active; IC50 [2]: Not Active
10 | 14.6 µM | COc1cccc(-c2nccc(NCc3ccc(Cl)c(Cl)c3)n2)c1 | IC50 [1]: Not Active
11 | 14.1 µM | N#Cc1cccc(-c2nccc(NCc3ccccc3)n2)c1 | –
12 | 23.2 µM | Cc1ccc(CNc2ccnc(-c3ccc4c(c3)OCO4)n2)cc1 | IC50 [1]: Not Active
13 | 13 µM | COc1ccc(-c2nccc(NCc3ccc(Cl)cc3)n2)cc1 | IC50 [1]: Not Active
14 | 26 µM | Clc1ccc(CNc2ccnc(-c3ccc4c(c3)OCO4)n2)cc1Cl | IC50 [1]: Not Active
15 | 18.4 µM | Clc1cncc(CNc2ccnc(-c3ccc4c(c3)OCO4)n2)c1 | –
16 | 8.2 µM | Brc1cncc(CNc2ccnc(-c3ccc4c(c3)OCO4)n2)c1 | –
17 | 0.05 µM | Clc1ccc(CNc2nccc(-c3ccc4c(c3)OCO4)n2)cc1 | –
18 | 13 µM | COc1cccc(-c2nccc(NCc3ccc(Cl)cc3)n2)c1 | –
19 | – | CN(C)c1ccc(-c2nccc(NCc3ccc(Cl)c(Cl)c3)n2)cc1 | IC50 [1]: Not Active; IC50 [2]: Not Active
20 | – | CN(C)c1ccc(-c2ncccn2)cc1 | IC50 [1]: Not Active; IC50 [2]: Not Active
21 | – | c1cnc(-c2ccc3c(c2)OCO3)nc1 | IC50 [1]: Not Active; IC50 [2]: Not Active

Row | IC50 ([2]; read-out: IC50) | SMILES | also measured
22 | 10.4 µM | Fc1ccc(CNc2ccnc(-c3ccc4c(c3)OCO4)n2)cc1F | –
23 | – | COc1ccc(CNc2ccnc(-c3ccc4c(c3)OCO4)n2)cc1 | IC50 [2]: Not Active
24 | 41.2 µM | COc1cccc(-c2nccc(NCc3ccc(C)cc3)n2)c1 | –
25 | 13 µM | Fc1cc(CNc2ccnc(-c3ccc4c(c3)OCO4)n2)ccc1Cl | –
26 | – | COc1ccc(-c2nccc(NCc3ccc(C)cc3)n2)cc1 | IC50 [1]: Not Active; IC50 [2]: Not Active
27 | 1.64 µM | Clc1cc(Cl)cc(CNc2cc(-c3ccc4c(c3)OCO4)ncn2)c1 | –
28 | 23.2 µM | Cc1ccc(CNc2ccnc(-c3cccc(C#N)c3)n2)cc1 | –
29 | 9.2 µM | COc1ccc(CNc2ccnc(-c3cccc(C#N)c3)n2)cc1 | –
30 | 31.6 µM | c1ccc(CNc2ccnc(-c3cccnc3)n2)cc1 | –
31 | 0.063 µM | c1cncc(CNc2ccnc(-c3ccc4c(c3)OCO4)n2)c1 | –
32 | 13 µM | Fc1ccc(CNc2ccnc(-c3ccc4c(c3)OCO4)n2)cc1Br | –
33 | 4.63 µM | Clc1ccc(CNc2cc(-c3ccc4c(c3)OCO4)ncn2)cc1Cl | –
34 | 8.2 µM | Fc1cncc(CNc2ccnc(-c3ccc4c(c3)OCO4)n2)c1 | –
35 | 8.2 µM | Fc1cc(CNc2ccnc(-c3ccc4c(c3)OCO4)n2)cc(F)c1F | –
36 | 2.2 µM | COc1ccccc1CNc1ncncc1-c1ccc2c(c1)OCO2 | –
37 | 15.8 µM | COc1cccc(-c2nccc(NCc3ccccc3)n2)c1 | –
38 | 5.2 µM | Fc1cc(F)cc(CNc2ccnc(-c3ccc4c(c3)OCO4)n2)c1 | –
39 | 41.2 µM | c1ccc2ncc(CNc3ccnc(-c4ccc5c(c4)OCO5)n3)cc2c1 | –
40 | 23.2 µM | COc1ccc(CNc2ccnc(-c3cccc(OC)c3)n2)cc1 | –
41 | 9.2 µM | c1ccc(CNc2ccnc(-c3ccc4c(c3)OCO4)n2)nc1 | –
42 | 16.4 µM | Clc1ccc(CNc2ccnc(-c3cccnc3)n2)cc1 | –

Row | SMILES | IC50 ([2]; read-out: IC50) | also measured
43 | Clc1ccc(CNc2ccnc(-c3ccc4c(c3)OCO4)n2)cn1 | 29.2 µM | IC50 ([1]; read-out: IC50): 29.2 µM
44 | Clc1ccc(CNc2cc(-c3ccc4c(c3)OCO4)ncn2)cc1 | 2.32 µM | –
45 | Cc1ccc(CNc2ccnc(-c3ccc4c(c3)OCO4)n2)cn1 | 32.8 µM | –
